Results reported in ChEMBL document CHEMBL3085716, “Hytramycins V and I, anti-Mycobacterium tuberculosis hexapeptides from a Streptomyces hygroscopicus strain” (J Nat Prod, 2013).
Values after ≈ are worked out from the molar mass of the structure shown.

How the values were obtained:
[1] = test system: Mycobacterium tuberculosis; assay: Ratio of MIC for Mycobacterium tuberculosis H37Rv under normoxic condition in presence of 10% fetal bovine serum to MIC for Mycobacterium tuberculosis H37Rv under normoxic condition in absence of 10% fetal bovine serum by MABA assay; format: functional
[2] = test system: Mycobacterium tuberculosis; assay: Ratio of MIC for Mycobacterium tuberculosis H37Rv under normoxic condition in presence of 4% bovine serum albumin to MIC for Mycobacterium tuberculosis H37Rv under normoxic condition in absence of 4% bovine serum albumin by MABA assay; format: functional
[3] = test system: Mycobacterium tuberculosis; assay: Antimycobacterial activity against Mycobacterium tuberculosis H37Rv under normoxic condition after 7 days by MABA assay in presence of 10% fetal bovine serum; format: functional; conditions: 168 h
[4] = test system: Mycobacterium tuberculosis; assay: Antimycobacterial activity against Mycobacterium tuberculosis H37Rv under normoxic condition after 7 days by MABA assay in presence of 4% bovine serum albumin; format: functional; conditions: 168 h
Streptococcus pneumoniae = assay: Antibacterial activity against Streptococcus pneumoniae ATCC 49619 after 20 hrs; format: functional; conditions: ATCC 49619, 20 h
Pseudomonas aeruginosa [5] = assay: Antibacterial activity against Pseudomonas aeruginosa ATCC 27853 at 10 ug/ml after 16 hrs; format: functional; conditions: ATCC 27853, 16 h
Pseudomonas aeruginosa [6] = assay: Antibacterial activity against Pseudomonas aeruginosa ATCC 27853 after 16 hrs; format: functional; conditions: for MIC90: ATCC 27853, 16 h
Enterococcus faecalis = assay: Antibacterial activity against Enterococcus faecalis ATCC 29212 after 16 hrs; format: functional; conditions: ATCC 29212, 16 h
Candida albicans [7] = assay: Antifungal activity against Candida albicans ATCC 10231 at 10 ug/ml after 48 hrs; format: functional; conditions: ATCC 10231, 48 h
Candida albicans [8] = assay: Antifungal activity against Candida albicans ATCC 10231 after 48 hrs; format: functional; conditions: ATCC 10231, 48 h
Staphylococcus aureus [9] = assay: Antibacterial activity against Staphylococcus aureus ATCC 29213 at 10 ug/ml after 16 hrs; format: functional; conditions: ATCC 29213, 16 h
Staphylococcus aureus [10] = assay: Antibacterial activity against Staphylococcus aureus ATCC 29213 after 16 hrs; format: functional
Escherichia coli [11] = assay: Antibacterial activity against Escherichia coli ATCC 25922 at 10 ug/ml after 16 hrs; format: functional; conditions: ATCC 25922, 16 h
Escherichia coli [12] = assay: Antibacterial activity against Escherichia coli ATCC 25922 after 16 hrs; format: functional
Acinetobacter baumannii [13] = assay: Antibacterial activity against Acinetobacter baumannii ATCC BAA-747 at 10 ug/ml after 16 hrs; format: functional; conditions: ATCC BAA-747, 16 h
Acinetobacter baumannii [14] = assay: Antibacterial activity against Acinetobacter baumannii ATCC BAA-747 after 16 hrs; format: functional; conditions: for MIC90: ATCC BAA-747, 16 h
[15] = test system: Mycolicibacterium smegmatis; assay: Antimycobacterial activity against Mycobacterium smegmatis ATCC 700084 under normoxic condition after 72 hrs by MABA assay; format: functional; conditions: ATCC 700084, 72 h
[16] = test system: Mycobacterium tuberculosis; assay: Antimycobacterial activity against Mycobacterium tuberculosis clinical isolate X005319 under normoxic condition after 7 days by MABA assay; format: functional; conditions: clinical isolate X005319, 168 h
[17] = test system: Mycobacterium tuberculosis; assay: Antimycobacterial activity against Mycobacterium tuberculosis clinical isolate X005282 under normoxic condition after 7 days by MABA assay; format: functional; conditions: clinical isolate X005282, 168 h
[18] = test system: Mycobacterium tuberculosis; assay: Antimycobacterial activity against Mycobacterium tuberculosis clinical isolate X004439 under normoxic condition after 7 days by MABA assay; format: functional; conditions: clinical isolate X004439, 168 h
[19] = test system: Mycobacterium tuberculosis; assay: Antimycobacterial activity against Mycobacterium tuberculosis clinical isolate X004244 under normoxic condition after 7 days by MABA assay; format: functional; conditions: clinical isolate X004244, 168 h
[20] = test system: Mycobacterium tuberculosis; assay: Antimycobacterial activity against Mycobacterium tuberculosis clinical isolate X003899 under normoxic condition after 7 days by MABA assay; format: functional; conditions: clinical isolate X003899, 168 h
[21] = test system: Mycobacterium tuberculosis; assay: Antimycobacterial activity against Mycobacterium tuberculosis clinical isolate X001354 under normoxic condition after 7 days by MABA assay; format: functional; conditions: clinical isolate X001354, 168 h
Vero = assay: Cytotoxicity against african green monkey Vero cells; format: cell-based; conditions: Chlorocebus sabaeus
[22] = test system: Mycobacterium tuberculosis; assay: Antimycobacterial activity against Mycobacterium tuberculosis H37Rv under normoxic condition after 7 days by MABA assay; format: functional; conditions: for MIC90: Mycobacterium tuberculosis, H37Rv, 168 h

Row | Compound | MIC90 [3] [µg/mL] | MIC90 [4] [µg/mL] | MIC90 (Streptococcus pneumoniae) [µg/mL] | MIC90 (Pseudomonas aeruginosa [6]) [µg/mL] | MIC90 (Enterococcus faecalis) [µg/mL] | MIC90 [15] [µg/mL] | MIC90 [16] [µg/mL] | MIC90 [17] [µg/mL] | MIC90 [18] [µg/mL] | MIC90 [19] [µg/mL] | MIC90 [20] [µg/mL] | MIC90 [21] [µg/mL] | MIC90 [22] [µg/mL] | other results
1 | CC(C)C[C@@H]1NC(=O)[C@H]2CCCNN2C(=O)[C@H](C)N(C)C(=O)[C@H]2CCCNN2C(=O)[C@@H]2CCCNN2C(=O)[C@@H](C(C)C)NC1=O | 29.2 | 24.1 | 8.4 (≈ 13.3 µM) | > 10 | 8 (≈ 12.6 µM) | > 10 | 19.2 (≈ 30.3 µM) | 9.6 (≈ 15.1 µM) | 9.3 (≈ 14.7 µM) | 16.9 (≈ 26.7 µM) | 22.9 (≈ 36.1 µM) | 9.7 (≈ 15.3 µM) | 11.3 (≈ 17.8 µM) | Ratio [1]: 2; Ratio [2]: 2; inhibition at 10 µg/mL (Pseudomonas aeruginosa [5]): 7%; inhibition at 10 µg/mL (Candida albicans [7]): 17%; MIC90 (Candida albicans [8]): > 10 µg/mL; inhibition at 10 µg/mL (Staphylococcus aureus [9]): 86%; MIC90 (Staphylococcus aureus [10]; ATCC 29213, 16 h): > 10 µg/mL; inhibition at 10 µg/mL (Escherichia coli [11]): 17%; MIC90 (Escherichia coli [12]; ATCC 25922, 16 h): > 10 µg/mL; inhibition at 10 µg/mL (Acinetobacter baumannii [13]): 37%; MIC90 (Acinetobacter baumannii [14]): > 10 µg/mL; IC50 (Vero): 24.2 µg/mL (≈ 38.2 µM); MBC90 [22]: >50 µg/mL
2 | CN(C)[C@@H]1C(O)=C(C(N)=O)C(=O)[C@@]2(O)C(O)=C3C(=O)c4c(O)ccc(Cl)c4[C@@H](O)[C@H]3C[C@@H]12 [DEMECLOCYCLINE] |  |  |  |  |  |  |  |  |  |  |  |  |  | MIC90 (Acinetobacter baumannii [14]): 0.1 µg/mL (≈ 0.215 µM)
3 | CN[C@H](CC(C)C)C(=O)N[C@H]1C(=O)N[C@@H](CC(N)=O)C(=O)N[C@H]2C(=O)N[C@H]3C(=O)N[C@H](C(=O)N[C@H](C(=O)O)c4cc(O)cc(O)c4-c4cc3ccc4O)[C@H](O)c3ccc(c(Cl)c3)Oc3cc2cc(c3O[C@@H]2O[C@H](CO)[C@@H](O)[C@H](O)[C@H]2O[C@H]2C[C@](C)(N)[C@H](O)[C@H](C)O2)Oc2ccc(cc2Cl)[C@H]1O [VANCOMYCIN] |  |  | 0.1 (≈ 0.069 µM) |  | 2.3 (≈ 1.59 µM) |  |  |  |  |  |  |  |  | 
4 | CO[C@H]1/C=C/O[C@@]2(C)Oc3c(C)c(O)c4c(O)c(c(/C=N/N5CCN(C)CC5)c(O)c4c3C2=O)NC(=O)/C(C)=C\C=C\[C@H](C)[C@H](O)[C@@H](C)[C@@H](O)[C@@H](C)[C@H](OC(C)=O)[C@@H]1C [RIFAMPIN] | < 0.02 | 0.02 | < 0.01 | 17.8 (≈ 21.6 µM) | 0.2 (≈ 0.243 µM) | < 0.3 | 0.1 (≈ 0.122 µM) | 0.03 (≈ 0.0365 µM) | 0.02 (≈ 0.0243 µM) | 0.1 (≈ 0.122 µM) | 0.1 (≈ 0.122 µM) | 0.02 (≈ 0.0243 µM) | < 0.02 | IC50 (Vero): 143 µg/mL (≈ 174 µM); MBC90 [22]: 0.1 µg/mL (≈ 0.122 µM)
5 | O=C(O)c1cn(C2CC2)c2cc(N3CCNCC3)c(F)cc2c1=O [CIPROFLOXACIN] |  |  |  | 0.2 (≈ 0.604 µM) | 4.9 (≈ 14.8 µM) |  |  |  |  |  |  |  |  | 
6 | CN(C)c1ccc(O)c2c1C[C@H]1C[C@H]3[C@H](N(C)C)C(O)=C(C(N)=O)C(=O)[C@@]3(O)C(O)=C1C2=O [MINOCYCLINE] |  |  |  |  |  |  |  |  |  |  |  |  |  | MIC90 (Acinetobacter baumannii [14]): 0.2 µg/mL (≈ 0.437 µM)
7 | NNC(=O)c1ccncc1 [ISONIAZID] | 0.04 | 0.1 |  |  |  | 12.7 (≈ 92.6 µM) | 0.9 (≈ 6.56 µM) | 0.1 (≈ 0.729 µM) | 0.1 (≈ 0.729 µM) | > 1.1 | 0.1 (≈ 0.729 µM) | 0.1 (≈ 0.729 µM) | 0.03 (≈ 0.219 µM) | 
8 | CC[C@H]1OC(=O)[C@H](C)[C@@H](O[C@H]2C[C@@](C)(OC)[C@@H](O)[C@H](C)O2)[C@H](C)[C@@H](O[C@@H]2O[C@H](C)C[C@H](N(C)C)[C@H]2O)[C@](C)(O)C[C@@H](C)C(=O)[C@H](C)[C@@H](O)[C@]1(C)O [ERYTHROMYCIN] |  |  | 0.1 (≈ 0.136 µM) |  | 1.9 (≈ 2.59 µM) |  |  |  |  |  |  |  |  | 
9 | GENTAMICIN |  |  |  |  |  |  |  |  |  |  |  |  |  | MIC>90 (Pseudomonas aeruginosa [6]): 0.5 µg/mL; MIC>90 (Staphylococcus aureus [10]): 0.6 µg/mL; MIC>90 (Escherichia coli [12]): 1.2 µg/mL; MIC>90 (Acinetobacter baumannii [14]): 0.2 µg/mL
10 | CC1COc2c(N3CCN(C)CC3)c(F)cc3c(=O)c(C(=O)O)cn1c23 (stereo unspecified) [OFLOXACIN] |  |  | 1.1 (≈ 3.04 µM) | 1.2 (≈ 3.32 µM) | 2.3 (≈ 6.36 µM) |  |  |  |  |  |  |  |  | 
11 | CN[C@@H]1[C@H](O[C@H]2[C@H](O[C@H]3[C@H](O)[C@@H](O)[C@H](N=C(N)N)[C@@H](O)[C@@H]3N=C(N)N)O[C@@H](C)[C@]2(O)C=O)O[C@@H](CO)[C@H](O)[C@H]1O [STREPTOMYCIN] | 0.6 | 0.8 |  |  |  | 0.1 (≈ 0.172 µM) | 1 (≈ 1.72 µM) | 0.6 (≈ 1.03 µM) | 0.3 (≈ 0.516 µM) | 0.3 (≈ 0.516 µM) | 0.2 (≈ 0.344 µM) | 0.4 (≈ 0.688 µM) | 0.3 (≈ 0.516 µM) | 
